Data on five molecules can be found in US20050261298A1, “Methods of treating conditions associated with an Edg-7 receptor” (priority 2002, published 2005).

Series [1] concerns the target T1, Edg-1 (Homo sapiens, UniProt P21453).
T1 construct: expressed in transfected cells; host or cells: HTC rat hepatoma cells
In words: Calcium mobilization assay (FLIPR), inhibition of S1P-stimulated calcium increase. In kind it is cell-based. The conditions noted are these: HTC cells expressing Edg-1. For orientation: Calcium assays in cells follow changes in intracellular calcium, usually with a dye or a luminescent sensor.

Series [2] addresses T2, Edg-2 (Homo sapiens, UniProt Q92633).
T2 construct: expressed in transfected cells; host or cells: HTC rat hepatoma cells
In words: Calcium mobilization assay (FLIPR), inhibition of LPA-stimulated calcium increase. In kind it is cell-based. The conditions noted are these: HTC cells expressing Edg-2.

In series [3] the target is T3, Edg-3 (Homo sapiens, UniProt Q99500).
T3 construct: expressed in transfected cells; host or cells: HTC rat hepatoma cells
In words: Calcium mobilization assay (FLIPR), inhibition of S1P-stimulated calcium increase. It counts as cell-based. The conditions noted are these: HTC cells expressing Edg-3.

Series [4] has as its target T4, Edg-4 (Homo sapiens, UniProt Q9HBW0). In words: Calcium mobilization assay (FLIPR), inhibition of LPA-stimulated calcium increase. In kind it is cell-based. The conditions noted are these: HTC cells expressing Edg-4.
Target sequence in this assay (Q9HBW0 1-344 limits assumed): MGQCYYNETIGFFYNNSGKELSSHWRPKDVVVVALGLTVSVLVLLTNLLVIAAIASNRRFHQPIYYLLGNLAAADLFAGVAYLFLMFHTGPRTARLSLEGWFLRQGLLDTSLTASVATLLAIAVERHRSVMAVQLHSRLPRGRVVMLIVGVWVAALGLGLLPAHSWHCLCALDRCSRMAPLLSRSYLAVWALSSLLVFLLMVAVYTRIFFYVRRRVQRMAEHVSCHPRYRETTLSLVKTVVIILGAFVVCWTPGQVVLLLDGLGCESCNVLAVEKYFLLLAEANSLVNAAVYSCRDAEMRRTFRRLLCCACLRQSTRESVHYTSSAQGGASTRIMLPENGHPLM
The target in series [5] is T5, Edg-5 (Homo sapiens, UniProt O95136).
T5 construct: expressed in transfected cells; host or cells: HTC rat hepatoma cells
In words: Calcium mobilization assay (FLIPR), inhibition of S1P-stimulated calcium increase. In kind it is cell-based. The conditions noted are these: HTC cells expressing Edg-5.

Series [6] addresses T6, Edg-6 (Homo sapiens, UniProt O95977).
T6 construct: expressed in transfected cells; host or cells: HTC rat hepatoma cells
T6 sequence (O95977 1-384): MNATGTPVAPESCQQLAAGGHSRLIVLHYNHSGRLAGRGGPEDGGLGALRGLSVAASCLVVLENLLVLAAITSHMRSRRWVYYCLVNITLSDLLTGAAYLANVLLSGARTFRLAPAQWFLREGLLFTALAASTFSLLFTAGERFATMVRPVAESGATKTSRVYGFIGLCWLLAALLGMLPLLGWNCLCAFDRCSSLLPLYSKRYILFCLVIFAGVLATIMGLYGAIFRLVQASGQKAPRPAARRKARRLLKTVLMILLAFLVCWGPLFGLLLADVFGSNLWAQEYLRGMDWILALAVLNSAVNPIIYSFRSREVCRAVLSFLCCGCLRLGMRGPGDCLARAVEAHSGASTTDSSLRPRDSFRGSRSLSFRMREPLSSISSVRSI
The description is as above. Particulars: HTC cells expressing Edg-6. In kind it is cell-based.

In series [7] the target is T7, human Edg 7 receptors (Homo sapiens, UniProt Q9UBY5).
T7 construct: expressed in transfected cells
T7 sequence (Q9UBY5 1-353): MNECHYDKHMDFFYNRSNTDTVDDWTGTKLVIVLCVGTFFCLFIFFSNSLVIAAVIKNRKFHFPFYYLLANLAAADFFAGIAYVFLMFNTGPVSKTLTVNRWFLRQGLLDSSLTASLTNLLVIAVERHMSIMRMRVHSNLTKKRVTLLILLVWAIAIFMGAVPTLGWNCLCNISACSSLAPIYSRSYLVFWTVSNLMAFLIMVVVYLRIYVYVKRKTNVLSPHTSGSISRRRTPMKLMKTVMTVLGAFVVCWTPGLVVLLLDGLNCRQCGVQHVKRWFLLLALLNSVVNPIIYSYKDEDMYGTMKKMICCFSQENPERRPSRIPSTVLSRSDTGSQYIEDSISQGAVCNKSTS
Kind of series: Calcium mobilization assay (FLIPR), inhibition of LPA response. Particulars: for IC50: HTC cells expressing human Edg 7; for Fold Selectivity: inhibitory selectivity for Edg-7 relative to other Edg receptors. In kind it is cell-based. As to the method:
(§1) The compounds were tested in HTC cells expressing human Edg 7 receptors. […] The compounds are tested in this recombinant system first, and subsequently tested in cell lines expressing Edg-7 (in addition to other Edg receptors).
The radioligand binding assays were conducted as described in Section 6.15 (Example 15).
(§2) LPA receptors such as Edg-7, couple to calcium effector pathways, and result in increases in intracellular calcium following receptor activation (An, 1998, J. Cell. Biochem Supp. 30-31:147-157). This biological response lends itself to a very efficient, high-throughput screen using a Fluorescence Imaging Plate Reader (FLIPR; Molecular Devices, Sunnyvale, Calif.). The FLIPR system is a real-time, cell-based assay system with continuous fluorescence detection using a cooled CCD camera. The FLIPR system was used to developing an Edg-7 receptor screen. Rat hepatoma cells stably expressing Edg-7 receptor were plated on 384-well plates and loaded with a calcium dye loading kit (Molecular Devices, Sunnyvale, Calif.) for 1 hour at room temperature. Cells were then placed on the FLIPR^384 (Molecular Devices, Sunnyvale, Calif.) and excited by an argon laser at […]. The data for the entire 384-well plate was updated every second. An integrated robotic pipettor allowed for simultaneous compound addition into each individual well in the plate

Series [8] concerns the target T8, Edg-8 (Homo sapiens, UniProt Q9H228).
T8 construct: expressed in transfected cells; host or cells: HTC rat hepatoma cells
Kind of series: Calcium mobilization assay (FLIPR), inhibition of S1P-stimulated calcium increase. In kind it is cell-based. Particulars: HTC cells expressing Edg-8.

Series [9] concerns the target T1, Edg-1. Kind of series: Calcium mobilization assay (FLIPR), agonist stimulation of calcium increase. The conditions noted are these: HTC cells expressing Edg-1; for stimulation of calcium increases, Edg-1: concentrations as high as 25 µM. It counts as cell-based.
The target in series [10] is T2, Edg-2. The description is as above. It counts as cell-based. The conditions noted are these: HTC cells expressing Edg-2; for stimulation of calcium increases, Edg-2: concentrations as high as 25 µM.
Series [11] has as its target T3, Edg-3. Described as above. It counts as cell-based. Particulars: HTC cells expressing Edg-3; for stimulation of calcium increases, Edg-3: concentrations as high as 25 µM.
The target in series [12] is T4, Edg-4. Described as above. It counts as cell-based. The conditions noted are these: HTC cells expressing Edg-4; for stimulation of calcium increases, Edg-4: concentrations as high as 25 µM.
Target sequence in this assay (Q9HBW0 1-340 limits assumed): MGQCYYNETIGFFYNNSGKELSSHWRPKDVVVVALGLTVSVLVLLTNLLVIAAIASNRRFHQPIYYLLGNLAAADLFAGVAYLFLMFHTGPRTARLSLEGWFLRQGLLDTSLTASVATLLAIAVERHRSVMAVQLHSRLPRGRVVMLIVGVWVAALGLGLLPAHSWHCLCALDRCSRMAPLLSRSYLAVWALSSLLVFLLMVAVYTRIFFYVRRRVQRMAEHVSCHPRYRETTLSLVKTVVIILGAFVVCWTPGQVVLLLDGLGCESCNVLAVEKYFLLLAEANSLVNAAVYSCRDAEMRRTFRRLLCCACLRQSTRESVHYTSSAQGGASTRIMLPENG
The target in series [13] is T5, Edg-5. Described as above. It counts as cell-based. The conditions noted are these: HTC cells expressing Edg-5; for stimulation of calcium increases, Edg-5: concentrations as high as 25 µM.
For series [14], the target named is T6, Edg-6. Described as above. It counts as cell-based. The conditions noted are these: HTC cells expressing Edg-6; for stimulation of calcium increases, Edg-6: concentrations as high as 25 µM.
The target of series [15] is T7, human Edg 7 receptors. The description is as above. In kind it is cell-based. The conditions noted are these: for EC50 / specific activation of the Edg-7 receptor: HTC cells expressing human Edg 7; for Fold Selectivity: agonist selectivity for Edg-7 relative to other Edg receptors and null cells. As to the method:
as §1, §2

In series [16] the target is T8, Edg-8. The series is described as above. It counts as cell-based. Particulars: HTC cells expressing Edg-8; for stimulation of calcium increases, Edg-8: concentrations as high as 25 µM.
Another series concerns untransfected HTC cells. In words: Calcium mobilization assay (FLIPR), agonist stimulation in null cells. In kind it is cell-based, rat. Particulars: for EC50: Rattus norvegicus; for stimulation of calcium increases, untransfected HTC cells: concentrations as high as 25 µM.

T8 sequence (Q9H228 whole entry): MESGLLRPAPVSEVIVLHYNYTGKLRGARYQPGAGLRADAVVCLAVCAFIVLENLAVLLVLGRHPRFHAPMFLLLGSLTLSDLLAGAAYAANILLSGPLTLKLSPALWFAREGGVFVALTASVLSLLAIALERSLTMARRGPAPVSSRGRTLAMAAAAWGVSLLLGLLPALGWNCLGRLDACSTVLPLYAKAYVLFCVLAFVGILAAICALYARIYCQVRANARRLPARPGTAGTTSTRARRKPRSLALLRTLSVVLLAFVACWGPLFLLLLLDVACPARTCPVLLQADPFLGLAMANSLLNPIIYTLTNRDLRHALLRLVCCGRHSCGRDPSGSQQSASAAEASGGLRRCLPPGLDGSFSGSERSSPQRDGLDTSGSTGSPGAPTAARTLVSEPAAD
T1 sequence (P21453 whole entry): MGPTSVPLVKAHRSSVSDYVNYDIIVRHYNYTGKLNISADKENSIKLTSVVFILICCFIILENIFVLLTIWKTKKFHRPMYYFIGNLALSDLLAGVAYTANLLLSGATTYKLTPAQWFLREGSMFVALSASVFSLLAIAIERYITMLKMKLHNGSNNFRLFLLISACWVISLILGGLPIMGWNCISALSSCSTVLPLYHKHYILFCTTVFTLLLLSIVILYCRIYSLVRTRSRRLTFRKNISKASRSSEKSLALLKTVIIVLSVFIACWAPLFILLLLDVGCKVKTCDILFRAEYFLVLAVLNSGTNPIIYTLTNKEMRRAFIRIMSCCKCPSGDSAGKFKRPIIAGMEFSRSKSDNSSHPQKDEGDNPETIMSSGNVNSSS
T3 sequence (Q99500 whole entry): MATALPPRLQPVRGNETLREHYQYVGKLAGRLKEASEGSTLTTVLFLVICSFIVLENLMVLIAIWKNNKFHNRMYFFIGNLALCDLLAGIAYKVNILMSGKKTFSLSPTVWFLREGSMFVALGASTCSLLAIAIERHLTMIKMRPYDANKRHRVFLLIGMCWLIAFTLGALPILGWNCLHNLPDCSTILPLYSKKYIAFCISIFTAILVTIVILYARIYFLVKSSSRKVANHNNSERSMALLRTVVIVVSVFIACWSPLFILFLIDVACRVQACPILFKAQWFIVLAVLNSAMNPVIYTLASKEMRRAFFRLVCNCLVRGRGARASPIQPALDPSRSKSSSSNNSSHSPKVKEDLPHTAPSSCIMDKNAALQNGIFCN
T2 sequence (Q92633 whole entry): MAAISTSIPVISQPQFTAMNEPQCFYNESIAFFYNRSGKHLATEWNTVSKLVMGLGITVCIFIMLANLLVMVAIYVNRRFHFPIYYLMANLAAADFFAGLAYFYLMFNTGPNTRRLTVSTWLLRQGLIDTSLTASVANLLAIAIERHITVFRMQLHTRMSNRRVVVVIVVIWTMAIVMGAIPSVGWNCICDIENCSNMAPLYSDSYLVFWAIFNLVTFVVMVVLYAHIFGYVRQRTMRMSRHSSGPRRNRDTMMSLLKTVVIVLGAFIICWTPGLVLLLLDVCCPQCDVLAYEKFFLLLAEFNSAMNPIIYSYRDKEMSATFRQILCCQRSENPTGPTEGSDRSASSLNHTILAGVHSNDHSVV
T5 sequence (O95136 whole entry): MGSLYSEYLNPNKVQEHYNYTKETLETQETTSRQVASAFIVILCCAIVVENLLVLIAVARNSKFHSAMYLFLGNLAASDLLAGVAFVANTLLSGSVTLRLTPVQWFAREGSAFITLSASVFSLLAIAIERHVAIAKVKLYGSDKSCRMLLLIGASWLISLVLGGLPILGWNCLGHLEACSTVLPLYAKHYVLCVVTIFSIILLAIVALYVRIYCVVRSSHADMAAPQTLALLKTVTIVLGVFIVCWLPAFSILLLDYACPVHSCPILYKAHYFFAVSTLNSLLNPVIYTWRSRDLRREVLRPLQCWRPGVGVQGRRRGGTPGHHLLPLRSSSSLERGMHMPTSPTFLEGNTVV

`O=C(O)COc1ccc(Br)cc1/C=C1\S/C(=N\c2ccc(Cl)cc2)NC1=O` (racemic) [Compound 107, 4-Bromo-2-[2-(4-chlorophenylimino)-4-oxothiazolidin-5-ylidenemethyl]phenoxyacetic acid]: the melting point (in general, the temperature, or range, at which the solid turns liquid) was 272 °C (dec.). Moreover, on Edg-1 [1], the IC50 (usually the concentration that gives 50% inhibition) was greater than 20 µM. For the same molecule, the IC50 on Edg-2 [2] is greater than 20 µM. The IC50 at Edg-3 [3] is greater than 20 µM. The IC50 at Edg-4 [4] was greater than 20 µM. Moreover, the concentration for half-maximal inhibition (IC50) at Edg-5 [5] was greater than 20 µM. Moreover, the IC50 on Edg-6 [6] was greater than 20 µM. Moreover, at human Edg 7 receptors [7], the IC50 was 7.73 µM and the “Fold Selectivity” value is on record as greater than 2.6 Fold. Further, the IC50 on Edg-8 [8] was greater than 20 µM.
Regarding `Cc1ccc(S(=O)(=O)N=C2NC(=O)/C(=C3/C(=O)Nc4ccccc43)S2)cc1` [Compound 105, 4-Methyl-N-[4-oxo-5-(2-oxo-1,2-dihydroindol-3-ylidene)thiazolidin-2-ylidene]-benzenesulfonamide], the melting point is 320 °C (dec.). Besides, the IC50 at Edg-1 [1] is greater than 20 µM. Moreover, the IC50 on Edg-2 [2] is greater than 20 µM. In addition, the IC50 on Edg-3 [3] is greater than 20 µM. The IC50 at Edg-4 [4] was greater than 20 µM. On Edg-5 [5], the IC50 is greater than 20 µM. In addition, on Edg-6 [6], the IC50 was greater than 20 µM. Moreover, the “selective inhibition of the Edg-7 receptor (FIG. 1, FIG. 2)” value at human Edg 7 receptors [7] (HTC cells expressing Edg-7) is “exhibited selectivity”. At human Edg 7 receptors [7], the IC50 was found to be 0.52 µM and the “Fold Selectivity” value is recorded as greater than 38.5 Fold. Besides, the IC50 on Edg-8 [8] was greater than 20 µM.
For `CCCCCC(CCCCC)=N/N=C1\NC(=O)C(CC(=O)O)S1` (stereo not drawn) [Compound 127, 4-Oxo-2-[(1-pentylhexylidene)hydrazono]thiazolidin-5-ylacetic acid], the melting point lay in the range of 134 to 135 °C. In addition, at Edg-1 [9], the EC50 (as a rule, the concentration giving half of the maximal effect) is greater than 25 µM and the “stimulation of calcium increases, Edg-1” value is reported as “did not stimulate”. Further, at Edg-2 [10], the EC50 is greater than 25 µM and the “stimulation of calcium increases, Edg-2” value was “did not stimulate”. Moreover, at Edg-3 [11], the EC50 was greater than 25 µM and the “stimulation of calcium increases, Edg-3” value was “did not stimulate”. For the same molecule, on Edg-4 [12], the EC50 is greater than 25 µM and the “stimulation of calcium increases, Edg-4” value is on record as “did not stimulate”. Also, on Edg-5 [13], the EC50 is greater than 25 µM and the “stimulation of calcium increases, Edg-5” value is on record as “did not stimulate”. For the same molecule, on Edg-6 [14], the EC50 was greater than 25 µM and the “stimulation of calcium increases, Edg-6” value was “did not stimulate”. At human Edg 7 receptors [15], the EC50 stood at 0.23 µM, the “specific activation of the Edg-7 receptor” value (“specific activation” for short) was “specifically activate” and the “Fold Selectivity” value was greater than 109 Fold. Moreover, on Edg-8 [16], the 50% effective concentration (EC50) was greater than 25 µM and the “stimulation of calcium increases, Edg-8” value was “did not stimulate”. For the same molecule, in the series with untransfected HTC cells, the EC50 was greater than 25 µM and the “stimulation of calcium increases, untransfected HTC cells” value is given as “did not stimulate”.
In the case of `COc1ccc(-c2nc3ccc(C(=O)O)cc3nc2-c2ccc(OC)cc2)cc1` [Compound 129, 2,3-bis-(4-Methoxyphenyl) quinoxaline-6-carboxylic acid], the melting point lay in the range of 284 to 285 °C. For the same molecule, at Edg-1 [9], the EC50 is greater than 25 µM and the “stimulation of calcium increases, Edg-1” value is “did not stimulate”. On Edg-2 [10], the EC50 is greater than 25 µM and the “stimulation of calcium increases, Edg-2” value is “did not stimulate”. For the same molecule, on Edg-3 [11], the EC50 is greater than 25 µM and the “stimulation of calcium increases, Edg-3” value was “did not stimulate”. Moreover, on Edg-4 [12], the EC50 was greater than 25 µM and the “stimulation of calcium increases, Edg-4” value is “did not stimulate”. Moreover, at Edg-5 [13], the 50% effective concentration (EC50) is greater than 25 µM and the “stimulation of calcium increases, Edg-5” value was “did not stimulate”. In addition, on Edg-6 [14], the 50% effective concentration (EC50) is greater than 25 µM and the “stimulation of calcium increases, Edg-6” value is listed as “did not stimulate”. Besides, at human Edg 7 receptors [15], the EC50 was 0.37 µM, the “specific activation” value is “specifically activate” and the “Fold Selectivity” value was greater than 68 Fold. In addition, at Edg-8 [16], the half-maximal effective concentration (EC50) is greater than 25 µM and the “stimulation of calcium increases, Edg-8” value is reported as “did not stimulate”. Moreover, in the series with untransfected HTC cells, the EC50 was greater than 25 µM and the “stimulation of calcium increases, untransfected HTC cells” value is reported as “did not stimulate”.
`Cc1cc(C)c2c(c1)Cc1ccccc1S2(=O)=O` [Compound 133, 2,4-Dimethyl-9H-thioxanthene 10,10-dioxide] came in with a melting point of 103 to 105 °C. At Edg-1 [9], the 50% effective concentration (EC50) was greater than 25 µM and the “stimulation of calcium increases, Edg-1” value is “did not stimulate”. On Edg-2 [10], the EC50 is greater than 25 µM and the “stimulation of calcium increases, Edg-2” value is “did not stimulate”. Further, on Edg-3 [11], the EC50 is greater than 25 µM and the “stimulation of calcium increases, Edg-3” value was “did not stimulate”. For the same molecule, on Edg-4 [12], the EC50 was greater than 25 µM and the “stimulation of calcium increases, Edg-4” value was “did not stimulate”. At Edg-5 [13], the EC50 is greater than 25 µM and the “stimulation of calcium increases, Edg-5” value was “did not stimulate”. Also, at Edg-6 [14], the half-maximal effective concentration (EC50) is greater than 25 µM and the “stimulation of calcium increases, Edg-6” value is on record as “did not stimulate”. Also, on human Edg 7 receptors [15], the EC50 turned out to be 1.61 µM, the “specific activation” value was “specifically activate” and the “Fold Selectivity” value was greater than 15.5 Fold. At Edg-8 [16], the half-maximal effective concentration (EC50) was greater than 25 µM and the “stimulation of calcium increases, Edg-8” value is reported as “did not stimulate”. In the series with untransfected HTC cells, the EC50 is greater than 25 µM and the “stimulation of calcium increases, untransfected HTC cells” value was “did not stimulate”.
